# Reference: patent US20090297624A1, “ARSENIC THERAPY FOR AUTOIMMUNE AND/OR INFLAMMATORY DISEASES IN MICE AND HUMANS” (CENTRE NATIONALE DE LA RECHERCHE SCIENTIFIQUE (CNRS), priority 2002, published 2009)
# Where “and” joins values, the source holds several entries; their conditions need not be identical. Equal values may be shown once.
# Key:
# [1] = test system: NOD (non obese diabetic) mice; assay: Arsenic treatment of diabetic NOD mice, glucose in urine; type: in vivo, mouse; conditions: 5-month-old female NOD mice treated for 2 months
# Method: 5-Month-old female NOD (non obese diabetic) mice, which were developing the first symptoms of diabetes, were treated for 2 months with arsenic. The evolution of the pathology was evaluated by measuring the amount of glucose in the urine.
# MRL+/+ mouse = assay: Arsenic treatment of control MRL+/+ mice; type: in vivo
# Method: (§1) Initially, the inventors determined the optimum dose of arsenic (As2O3) to be injected into the MRL/lpr mice. Two concentrations were chosen: 1 and 5 μg of As2O3/g of mouse. At date T0, these injections were given daily. […] Knowing that the MRL/lpr autoimmune mice die, on average, after 4 to 5 months, compared with the normal MRL+/+ mice which die after ˜2 years, the inventors decided to conserve, for the subsequent treatments, only the dose of 5 μg/g of mice.
# (§2) Each of the five groups has its controls consisting in injecting the dilution buffer for the arsenic. In addition, the animals present in the control and treated groups are derived from the same litter, which makes it possible to obtain reliable comparisons. At T0+5 months, more than 60 mice (MRL/lpr and MRL+/+) are undergoing treatment.
# (§3) In parallel with these studies on the skin, other organs that are targets for autoimmune pathologies, such as the kidney, the lung, the liver, the eye, etc., were removed and analyzed by anatomopathology. In addition, these various organs, along with the spleen, the lymph nodes and the thymus, were weighed.
# (§4) The aim of this group of animals, which was begun at T0, is to evaluate the preventive effect of an arsenic treatment on the development of the lymphoproliferation and of the autoimmune pathologies. To do this, 4 groups of animals 1.5 months old were formed. Two of these groups consist of MRL/lpr mice and the other two groups consist of MRL+/+ mice. One MRL/lpr group and one MRL+/+ group were treated with 5 μg of arsenic per gram of mouse, and the other two control groups were treated with the dilution buffer for the arsenic. At T0+1 month, animals from each group were sacrificed. The organs analyzed were the thymus, the spleen, the lymph nodes, the skin, the liver, the kidney and the heart. […] The arsenic therefore has a preventive effect on the development of the lymphoproliferation. The phenotype of the lymphoid populations present in this spleen and this node was determined by flow cytometry. As for the results for group 1, the arsenic makes it possible to eliminate the population of double-negative T cells which accumulate as the MRL/lpr mouse ages. In addition, the organs of these treated mice have a normal weight; there is therefore neither the lympho-proliferation nor the hepatomegaly that are observed in the control mice. The liver, the spleen, a lymph node, an eye, etc., were removed in order to be analyzed by anatomopathology.
# MRL/lpr mouse [2] = assay: Preventive arsenic treatment of MRL/lpr mice; type: in vivo
# Method: This study is aimed at preventing the appearance of the pathologies.
# as §4
# It is desirable to determine very precisely the preventive and curative effect of various doses of arsenic on the evolution of the pathologies developed by the MRL/lpr mice. Five groups of animals (MRL/lpr and MRL+/+) were treated with the following concentrations: 2.5, 5, 7.5, 10 and 15 μg/g of mouse.
# MRL/lpr mouse [3] = assay: Curative arsenic (As2O3) treatment of MRL/lpr autoimmune mice; type: in vivo
# Source text: The inventors have studied mice referred to as MRL mice homozygous for the lpr mutation (MRL/lpr). Lymphoproliferation (lpr) results in an accumulation of activated T lymphocytes, of phenotype CD4^+CD8^− or CD4^−CD8^+ which have escaped the process of negative regulation via the apoptotic pathway. Thus, in MRL/lpr mice, hypertrophy of lymph nodes occurs, the mass of which is 100 times greater than that of the lymph nodes of MRL+/+mice, which are congenic for the lpr gene, and a spleen whose size is multiplied by 7 and a thymus whose weight, at the 22nd week, is double that of the MRL+/+ mice are observed. These activated T lymphocytes which accumulate will gradually repress the expression of their CD4 or CD8 receptors and become double-negative T lymphocytes having the phenotype: TCRαβCD4^−CD8^−B220^+, which will be responsible for the lymphoproliferation.
# The MRL/lpr mouse is in particular a spontaneous model of autoimmune diseases such as disseminated lupus erythematosus with the presence of erythematous lesions of the skin and of rheumatoid arthritis. […] These mice produce, as they age, a large quantity of autoantibodies which are responsible for a lethal glomerulonephritis due to immunocomplex deposits in the glomeruli of the kidney. Thus, the lifespan of the MRL/lpr mouse is considerably shortened compared with that of the MRL+/+ mouse: ˜4-5 months in the MRL/lpr mouse compared with ˜2 years in the MRL+/+ mouse.
# as §1
# From the end of the first week of treatment, the inventors formed 5 groups of animals: • b 1st group, aimed at the curative treatment of an already present pathology, • 2nd group, aimed at preventing the appearance of pathologies, • 3rd group, aimed at determining the lifespan of the treated animals, • 4th group, aimed at determining the dose effect, • 5th group, aimed at evaluating the effect of stopping the treatment.
# as §2
# This study is aimed at the curative treatment of an already present pathology.
# as §3
# After 1 month and 20 days of treatment, a group of 3 control MRL/lpr mice and a group of 3 treated MRL/lpr mice were sacrificed in order to evaluate the effectiveness of the treatment on the lympho-proliferation. The organs analyzed were the thymus, the spleen and the lymph nodes. […] The phenotype of the lymphoid populations present in this spleen and this node was determined by flow cytometry. […] In addition, this cell population of abnormal phenotype is replaced with T lymphocytes of normal phenotype CD4^+CD8^− and CD4^−CD8^+ (FIG. 5). However, the level of reduction of the number of these double-negative T cells depends on the duration of the treatment. […]
# MRL/lpr→MRL+/+ chimeras = assay: As2O3 treatment of MRL/lpr→MRL+/+ chimeras (GVH reaction); type: in vivo, mouse
# Method: In addition, lethally irradiated MRL+/+ mice had their bone marrow reconstituted with bone marrow from MRL/lpr mice (MRL/lpr→MRL+/+ chimeras) or with bone marrow from MRL+/+ mice (MRL+/+→MRL+/+ chimeras) as a control. After reconstitution, the chimeras are treated with arsenic or are not treated. While 100% of the untreated MRL/lpr→MRL+/+ chimeras died of a graft-versus-host (GvH) reaction two weeks after the transplant, the chimeras treated with arsenic were alive. The arsenic is therefore effective against GvH and makes it possible to spectacularly increase the survival of the animals.
# (§5) Hematopoietic chimeras. Spleen and bone marrow cells from MRL/lpr were injected i.v. into MRL+/+ lethally irradiated (1000 cGy) in a ^137Cesium irradiator (MRL/Lpr→MRL+/+ chimeras). The control group consisted of irradiated MRL+/+ grafted with MRL+/+ cells (MRL+/+→MRL+/+ chimeras). All mice used in this graft protocol were sex matched.
# (§6) MRL/Lpr→MRL+/+ and MRL+/+→MRL+/+ chimeras were injected i.p. daily with 2.5, 5, 7.5, 10 or 15 μg/g body weight of As2O3; controls received a daily i.p. injection of PBS (volume weight-determined). Treatments were initiated one week post-grafting.
# Blood samples were collected at different times after grafting and glutamic-oxaloacetic transaminase (GOT) and glutamic-pyruvic transaminase (GPT) levels were measured (IU/l).
# (§7) Serum levels of IFN-α, IFN-γ, soluble FasL, IL-18, TNF-α were assayed using the Mouse Interferon-alpha (PBL Biomedical laboratories, New Jersey, USA), the Mouse Interferon-gamma ELISA Ready-SET-Go (eBioscience, San Diego, Calif.), Mouse Fas Ligand Immunossay (Quantikine M kit; R&D systems, Minneapolis, Minn.), Mouse IL-18 ELISA (R&D Systems), Mouse TNF-α Immunoassay (R&D systems), respectively, following the manufacturer's instructions.
# Serum levels of nitrite were measured using the Nitric Oxide quantification kit (Active Motif, Rixensart, Belgium), according to the manufacturer's instructions (data not shown).
# MRL+/+→MRL+/+ chimeras = assay: As2O3 treatment of control MRL+/+→MRL+/+ chimeras; type: in vivo, mouse; conditions: serum ELISA
# Method: as §5, §6, §7
# [4] = MRL+/+ mice treated with arsenic
# [5] = preventive, 5 μg/g, at T0+1 month
# [6] = MRL/lpr mice treated with arsenic
# [7] = MRL/lpr, treated with arsenic for two months, treatment then stopped for two months
# [8] = end of the first month of treatment, 5 μg/g
smiles,measurement,setting,value
O=[As]O[As]=O (centres unmarked) [As2O3],glucose level in the urine,[1],normal glucose level in the urine
same,"Organ weight, 2 lungs",MRL+/+ mouse; [4],0.32 grams and 0.30 grams
same,"Organ weight, axillary nodes",MRL+/+ mouse; [4],0.01 grams
same,"Organ weight, heart",MRL+/+ mouse; [4],0.22 grams
same,"Organ weight, kidney",MRL+/+ mouse; [4],0.44 grams
same,"Organ weight, liver",MRL+/+ mouse; [4],2.40 grams and 2.45 grams
same,"Organ weight, mesenteric nodes",MRL+/+ mouse; [4],0.05 grams and 0.03 grams
same,"Organ weight, spleen",MRL+/+ mouse; [4],0.10 grams and 0.15 grams
same,treatment-related pathologies,"MRL+/+ mouse; MRL+/+ mice, 5 μg/g, at T0+5 months",no sign of treatment-related pathologies
same,"toxicity, preventive treatment",MRL/lpr mouse [2]; 15 μg/g of mouse,very toxic and the animals died after two months
same,non-lymphoid organs such as the heart or the kidney,MRL/lpr mouse [2]; [5],not modified by the treatment
same,"organ weight (lymphoproliferation, hepatomegaly)",MRL/lpr mouse [2]; [5],normal weight
same,lymphoproliferation,"MRL/lpr mouse [2]; preventive, 1.5 months old mice, 5 μg/g, at T0+1 month",virtually complete absence of the lymphoproliferation
same,"curative effect (skin lesions, size of the nodes)",MRL/lpr mouse [3]; 2.5 μg/g of mouse,not sufficiently effective
same,lupus-specific skin lesions,"MRL/lpr mouse [3]; 5 μg of As2O3/g of mouse daily, after one week of treatment",spectacular signs of improvement
same,skin lesions,MRL/lpr mouse [3]; 5 μg/g,complete disappearance of skin lesions
same,skin lesions,MRL/lpr mouse [3]; 7.5 μg/g,complete disappearance of skin lesions
same,skin lesions,MRL/lpr mouse [3]; 10 μg/g,complete disappearance of skin lesions
same,"toxicity, curative treatment",MRL/lpr mouse [3]; 15 μg/g of mouse,lethal in a few days
same,immunocomplexes in the kidney,MRL/lpr mouse [3]; FIG. 7,absence of immunocomplexes in the kidney
same,infiltration of the kidney by cells of the immune system,MRL/lpr mouse [3]; FIG. 7,do not shown any infiltration
same,"Organ weight, 2 lungs",MRL/lpr mouse [3]; [6],0.33 grams and 0.40 grams
same,"Organ weight, axillary nodes",MRL/lpr mouse [3]; [6],0.01 grams and 0.02 grams
same,"Organ weight, heart",MRL/lpr mouse [3]; [6],0.20 grams and 0.25 grams
same,"Organ weight, kidney",MRL/lpr mouse [3]; [6],0.52 grams and 0.53 grams
same,"Organ weight, liver",MRL/lpr mouse [3]; [6],2.58 grams and 2.89 grams
same,"Organ weight, mesenteric nodes",MRL/lpr mouse [3]; [6],0.05 grams
same,"Organ weight, spleen",MRL/lpr mouse [3]; [6],0.13 grams and 0.17 grams
same,"Organ weight, 2 lungs",MRL/lpr mouse [3]; [7],0.51 grams and 0.50 grams
same,"Organ weight, heart",MRL/lpr mouse [3]; [7],0.29 grams and 0.26 grams
same,"Organ weight, kidney",MRL/lpr mouse [3]; [7],0.55 grams
same,"Organ weight, liver",MRL/lpr mouse [3]; [7],3.21 grams and 3.12 grams
same,"Organ weight, mesenteric nodes",MRL/lpr mouse [3]; [7],1.97 grams and 1.03 grams
same,size of the spleen and of a mesenteric node,"MRL/lpr mouse [3]; after 1 month and 20 days of treatment, FIG. 4",spectacular decrease
same,population of double-negative T lymphocytes TCRαβCD4-CD8-B220+,"MRL/lpr mouse [3]; after 1 month and 20 days of treatment, flow cytometry of spleen and node",virtually complete elimination
same,survival,"MRL/lpr mouse [3]; after 4 months, FIG. 9 legend",all the treated animals are alive
same,survival and signs of pathology,"MRL/lpr mouse [3]; after 35 weeks of treatment, FIG. 9",still alive with no signs of lymphoproliferation or of autoimmune pathologies
same,"pulmonary architecture, infiltration by lymphoid cells","MRL/lpr mouse [3]; anatomopathology, FIG. 3",normal pulmonary architecture
same,"amount of cytokines (alpha-IFN, gamma-IFN, IL-18, TNF-alpha, soluble FasL)","MRL/lpr mouse [3]; compared with normal MRL+/+ mice, FIG. 6",returns the amount of cytokines to a normal level
same,exophthalmia,MRL/lpr mouse [3]; [8],spectacular decrease
same,lupus-related skin lesions,MRL/lpr mouse [3]; [8],complete disappearance
same,lowest effective dose,MRL/lpr mouse [3]; mouse,5 µg/g
same,glomerulonephritis,"MRL/lpr mouse [3]; mouse, in vivo",significant reduction
same,"weight of lymph nodes, spleen and liver compared to MRL+/+ mouse",MRL/lpr mouse [3]; summary of table 1,returns the following organs to a normal weight
same,double-negative T cells,MRL/lpr mouse [3]; treatment of three months,eliminate all the double-negative T cells
same,pathologies after stopping treatment,MRL/lpr mouse [3]; treatment stopped for three months,reappearance of the lymphoproliferation and of the hepatomegaly
same,treated mice alive,"MRL/lpr mouse [3]; very sick MRL/lpr mice, at T0+14 weeks",100%
same,soluble and membrane-associated FasL levels,"MRL/lpr→MRL+/+ chimeras; ELISA of sera and Western blotting of lymphoid cell lysates, FIG. 10A",sharply decreased
same,serum IFN-α level,"MRL/lpr→MRL+/+ chimeras; ELISA, FIG. 11A",maintained normal cytokine concentrations
same,serum TNF-α level,"MRL/lpr→MRL+/+ chimeras; ELISA, FIG. 11B",maintained normal cytokine concentrations
same,Transaminase levels (GOT),MRL/lpr→MRL+/+ chimeras; FIG. 10B,normalised
same,level of other inflammatory cytokines and NO,MRL/lpr→MRL+/+ chimeras; data not shown,reduced
same,survival,"MRL/lpr→MRL+/+ chimeras; male and female chimeras with established GVH reaction, P<0.001, FIG. 12",significantly prolonged survival
same,survival of chimeras,MRL/lpr→MRL+/+ chimeras; two weeks after the transplant,alive
same,IFN-α synthesis,MRL+/+→MRL+/+ chimeras; FIG. 11A,not affected
same,TNF-α synthesis,MRL+/+→MRL+/+ chimeras; FIG. 11B,not affected
